From patent US20260083722A1, “BIFUNCTIONAL DEGRADERS COMPRISING ELECTROPHILIC PROTACS THAT ENGAGE DCAF1 AND PHARMACEUTICAL COMPOSITIONS COMPRISING THE SAME” (THE SCRIPPS RESEARCH INSTITUTE, priority 2022, published 2026)

Tests used:
Type in all cases: cell-based
HA-FKBP12 = target: T1, HA-FKBP12 (Homo sapiens, UniProt P62942); assay: ubiquitination of immunoprecipitated HA-FKBP12 in HEK293T cells
T1 construct: expressed in transfected cells; host or cells: HEK293T
Protocol: (§1) (A) Left, western blots showing effects of YT47R and YT47S on the immunoprecipitation (IP) of FLAG-DCAF1-WT or FLAG-DCAF1-C1113A with HA-FKBP12 in HEK293T cells co-expressing these proteins. Cells were treated with YT47R or YT47S (5 μM) for 2 h in the presence of MG132 (10 μM) prior to lysis and IP with an anti-HA antibody and western blotting for the indicated proteins (DCAF1, FKBP12, and ubiquitinated protein). Right, bar graphs quantifying DCAF1 (top) and ubiquitination (Ub) (bottom) in the indicated IP groups. (B) Left, western blots showing effects of YT47R and YT47S on the IP of endogenous DCAF1 with HA-FKBP12 in HEK293T cells expressing HA-FKBP12. […] Right, bar graph quantifying DCAF1 in the indicated IP groups. […] Statistical significance was calculated with unpaired two-tailed Student's t-tests comparing YT41R/YT47R- and DMSO-treated cells. **P<0.01, ****P<0.0001. (C) MS-ABPP quantification of IA-DTB labeling of the indicated cysteines in DCAF1 from FLAG-DCAF1-WT-expressing HEK293T cells treated with the indicated concentrations of YT47R (3 h) relative to cells treated with DMSO. […] Statistical significance was calculated with unpaired two-tailed Student's t-tests comparing compound to DMSO treated cells. *P<0.1. […]

[1] = target: T2, C1113 of recombinantly expressed DCAF1 (Homo sapiens, UniProt Q9Y4B6); assay: MS-ABPP in FLAG-DCAF1-WT-expressing HEK293T cells; conditions: 5 μM, 3 h
T2 construct: expressed in transfected cells; host or cells: HEK293T
Protocol: as §1

[2] = tested on: ternary complex of FKBP12 and DCAF1; assay: co-immunoprecipitation of DCAF1 with HA-FKBP12 in HEK293T cells (ternary complex); conditions: 5 μM, 2 h
Protocol: (A) Left, western blots showing effects of YT47R and YT47S on the immunoprecipitation (IP) of FLAG-DCAF1-WT or FLAG-DCAF1-C1113A with HA-FKBP12 in HEK293T cells co-expressing these proteins. Cells were treated with YT47R or YT47S (5 μM) for 2 h in the presence of MG132 (10 μM) prior to lysis and IP with an anti-HA antibody and western blotting for the indicated proteins (DCAF1, FKBP12, and ubiquitinated protein). Right, bar graphs quantifying DCAF1 (top) and ubiquitination (Ub) (bottom) in the indicated IP groups. (B) Left, western blots showing effects of YT47R and YT47S on the IP of endogenous DCAF1 with HA-FKBP12 in HEK293T cells expressing HA-FKBP12. Cells were treated with YT47R or YT47S (5 μM) for 2 h in the presence of MG132 (10 μM) prior to lysis and IP with an anti-HA antibody and western blotting for the indicated proteins (DCAF1, FKBP12). Right, bar graph quantifying DCAF1 in the indicated IP groups. For (A, B), data are mean values±SEM for three independent experiments. Statistical significance was calculated with unpaired two-tailed Student's t-tests comparing YT41R/YT47R- and DMSO-treated cells. **P<0.01, ****P<0.0001. (C) MS-ABPP quantification of IA-DTB labeling of the indicated cysteines in DCAF1 from FLAG-DCAF1-WT-expressing HEK293T cells treated with the indicated concentrations of YT47R (3 h) relative to cells treated with DMSO. Data represent average values±SEM from four independent experiments. Statistical significance was calculated with unpaired two-tailed Student's t-tests comparing compound to DMSO treated cells. *P<0.1.
Finally, we investigated whether electrophilic PROTACs induce a stable ternary complex of FKBP12 with DCAF1 and promote FKBP12 ubiquitination. […] A ternary complex was not observed in cells expressing the DCAF1-C1113A mutant (FIG. 6A), supporting that YT47R induces this complex through site-specifically reacting with C1113. […] In considering possible reasons why this ternary complex formation with endogenous DCAF1 was insufficient to support the degradation of recombinantly expressed FKBP12 (FIG. 4A), we speculate that our current PROTACs (YT41R, YT47R) may require further improvements in cellular properties to enable robust targeted protein degradation mediated by physiological concentrations of DCAF1.

T1 sequence (P62942 whole entry): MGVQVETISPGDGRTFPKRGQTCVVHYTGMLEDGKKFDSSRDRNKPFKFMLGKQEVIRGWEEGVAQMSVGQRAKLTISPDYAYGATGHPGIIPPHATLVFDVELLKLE
T2 sequence (Q9Y4B6 whole entry): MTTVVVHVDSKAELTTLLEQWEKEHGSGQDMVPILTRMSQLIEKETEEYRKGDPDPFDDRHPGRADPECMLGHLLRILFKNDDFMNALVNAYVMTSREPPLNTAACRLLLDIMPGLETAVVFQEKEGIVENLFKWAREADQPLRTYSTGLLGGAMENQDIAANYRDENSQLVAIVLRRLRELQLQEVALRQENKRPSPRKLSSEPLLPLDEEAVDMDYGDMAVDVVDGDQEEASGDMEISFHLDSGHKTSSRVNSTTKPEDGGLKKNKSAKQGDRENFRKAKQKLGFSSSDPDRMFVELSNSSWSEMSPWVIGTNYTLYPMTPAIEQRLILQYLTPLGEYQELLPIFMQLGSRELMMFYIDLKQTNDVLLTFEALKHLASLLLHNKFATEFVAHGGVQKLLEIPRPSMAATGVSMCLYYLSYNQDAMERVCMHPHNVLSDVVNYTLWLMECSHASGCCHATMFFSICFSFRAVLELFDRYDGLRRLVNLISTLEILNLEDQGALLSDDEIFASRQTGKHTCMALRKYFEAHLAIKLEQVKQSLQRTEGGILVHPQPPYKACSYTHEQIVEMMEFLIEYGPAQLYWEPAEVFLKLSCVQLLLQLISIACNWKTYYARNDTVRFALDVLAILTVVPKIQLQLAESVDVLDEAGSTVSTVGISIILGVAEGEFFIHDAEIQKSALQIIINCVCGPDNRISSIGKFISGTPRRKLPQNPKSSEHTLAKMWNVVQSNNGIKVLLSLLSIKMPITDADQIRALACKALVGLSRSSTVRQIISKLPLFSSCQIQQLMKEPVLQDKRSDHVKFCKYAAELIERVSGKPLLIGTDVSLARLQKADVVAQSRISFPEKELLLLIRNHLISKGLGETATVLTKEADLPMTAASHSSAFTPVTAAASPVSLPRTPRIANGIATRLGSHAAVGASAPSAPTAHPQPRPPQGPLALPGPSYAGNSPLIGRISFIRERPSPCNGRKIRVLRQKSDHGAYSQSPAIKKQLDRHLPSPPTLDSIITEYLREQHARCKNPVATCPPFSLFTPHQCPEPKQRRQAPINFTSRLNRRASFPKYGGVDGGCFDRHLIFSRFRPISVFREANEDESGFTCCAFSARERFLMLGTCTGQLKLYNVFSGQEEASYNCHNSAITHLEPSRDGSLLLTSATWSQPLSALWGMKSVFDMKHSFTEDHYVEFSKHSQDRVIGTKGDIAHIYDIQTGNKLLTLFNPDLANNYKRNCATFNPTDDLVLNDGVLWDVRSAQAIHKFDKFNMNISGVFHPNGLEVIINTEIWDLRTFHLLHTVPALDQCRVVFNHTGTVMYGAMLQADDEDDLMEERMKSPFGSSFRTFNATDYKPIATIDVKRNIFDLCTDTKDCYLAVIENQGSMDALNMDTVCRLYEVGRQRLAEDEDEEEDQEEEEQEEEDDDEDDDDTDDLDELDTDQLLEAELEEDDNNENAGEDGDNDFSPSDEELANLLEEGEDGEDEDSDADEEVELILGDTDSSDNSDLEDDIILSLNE

C=CC(=O)N1C[C@H](c2ccc(C(=O)NCCOCCOCCOCCNC(=O)COc3cccc([C@@H](CCc4ccc(OC)c(OC)c4)OC(=O)[C@@H]4CCCCN4C(=O)C(=O)C(C)(C)CC)c3)cc2)[C@@H]1C(=O)Nc1cccc2cccnc12 [YT47R] was tested, and the “polyubiquitination of immunoprecipitated HA-FKBP12” value (HA-FKBP12; DCAF1-WT-expressing cells, 5 μM, 2 h, MG132) was “robust polyubiquitination”, the FKBP12 ubiquitination (HA-FKBP12; HEK293T cells that did not express exogenous DCAF1, versus YT47S) was “increased FKBP12 ubiquitination” and the “engagement of C1113 of recombinantly expressed DCAF1” value [1] was ~20%. For the same compound, the “ternary complex of FKBP12 and DCAF1” value ([2]; FLAG-DCAF1-WT, in the presence of MG132 (10 μM)) was “clear evidence of a ternary complex”, the “ternary complex of endogenous DCAF1 with HA-FKBP12” value ([2]; HEK293T expressing HA-FKBP12 only, MG132, compared to YT47S or DMSO) was “more robust ternary complex” and the “ternary complex of FKBP12 and DCAF1” value ([2]; cells expressing the DCAF1-C1113A mutant, MG132) was “not observed”.
